The NIST ThermoML archive (doi:10.1016/j.fluid.2018.08.012)
Where “and” joins values, the source holds several entries; their conditions need not be identical. Equal values may be shown once.

Assay: mn = molality of the nth substance listed, in mol/kg
Details: Fluid (supercritical or subcritical phases), Vibrating tube method

O=S=O [sulfur dioxide] + O=C=O
m1 = 0.2392
Details	mass density
324.07 K, 2523.7 kPa	45.99 kg/m3
324.07 K, 2524.8 kPa	46.06 kg/m3
324.07 K, 5037.9 kPa	106.08 kg/m3
324.07 K, 5047.5 kPa	106.41 kg/m3
324.07 K, 7549.5 kPa	197.2 kg/m3
324.07 K, 7550.3 kPa	197.25 kg/m3
324.07 K, 10068 kPa	396.72 kg/m3
324.07 K, 10080 kPa	398.55 kg/m3
324.07 K, 12568 kPa	620.49 kg/m3 and 620.47 kg/m3
324.07 K, 15086 kPa	705.24 kg/m3
324.07 K, 15087 kPa	705.32 kg/m3
324.07 K, 17615 kPa	754.18 kg/m3
324.07 K, 20140 kPa	788.89 kg/m3 and 788.93 kg/m3
324.07 K, 22662 kPa	816.06 kg/m3
324.07 K, 22664 kPa	816.05 kg/m3
324.07 K, 25179 kPa	838.47 kg/m3
324.07 K, 25185 kPa	838.49 kg/m3
324.07 K, 27695 kPa	857.63 kg/m3
324.07 K, 27705 kPa	857.68 kg/m3
324.07 K, 30187 kPa	874.31 kg/m3
324.07 K, 30220 kPa	874.51 kg/m3
324.07 K, 32689 kPa	889.28 kg/m3
324.07 K, 32729 kPa	889.51 kg/m3
324.07 K, 35178 kPa	902.77 kg/m3
324.07 K, 35212 kPa	902.97 kg/m3
349.39 K, 2532.7 kPa	41.96 kg/m3
349.39 K, 2537.9 kPa	42.01 kg/m3
349.39 K, 5043.8 kPa	91.74 kg/m3
349.39 K, 5046.4 kPa	91.91 kg/m3
349.39 K, 7518.6 kPa	153.18 kg/m3
349.39 K, 7555.2 kPa	154.4 kg/m3
349.39 K, 10069 kPa	236.57 kg/m3
349.39 K, 10075 kPa	236.62 kg/m3
349.39 K, 12580 kPa	346.19 kg/m3
349.39 K, 12586 kPa	346.44 kg/m3
349.39 K, 15085 kPa	467.39 kg/m3
349.39 K, 15089 kPa	467.53 kg/m3
349.39 K, 17619 kPa	564.01 kg/m3
349.39 K, 17622 kPa	564.12 kg/m3
349.39 K, 20144 kPa	630.6 kg/m3
349.39 K, 20146 kPa	630.67 kg/m3
349.39 K, 22669 kPa	678.62 kg/m3
349.39 K, 22671 kPa	678.72 kg/m3
349.39 K, 25189 kPa	715.52 kg/m3
349.39 K, 25190 kPa	715.6 kg/m3
349.39 K, 27706 kPa	745.39 kg/m3
349.39 K, 27707 kPa	745.51 kg/m3
349.39 K, 30211 kPa	770.4 kg/m3
349.39 K, 30216 kPa	770.37 kg/m3
349.39 K, 32707 kPa	791.84 kg/m3
349.39 K, 32708 kPa	791.77 kg/m3
349.39 K, 35200 kPa	810.62 kg/m3
349.39 K, 35202 kPa	810.71 kg/m3
375.06 K, 2549.7 kPa	38.37 kg/m3
375.06 K, 2555.7 kPa	38.44 kg/m3
375.06 K, 5060.6 kPa	81.6 kg/m3
375.06 K, 5068.6 kPa	81.91 kg/m3
375.06 K, 7564.3 kPa	131.73 kg/m3
375.06 K, 7579.7 kPa	132.31 kg/m3
375.06 K, 10049 kPa	189.67 kg/m3
375.06 K, 10080 kPa	190.27 kg/m3
375.06 K, 12595 kPa	258.2 kg/m3
375.06 K, 12612 kPa	259 kg/m3
375.06 K, 15080 kPa	333.08 kg/m3
375.06 K, 15093 kPa	333.81 kg/m3
375.06 K, 17617 kPa	411.4 kg/m3
375.06 K, 17623 kPa	411.26 kg/m3
375.06 K, 20142 kPa	482.1 kg/m3
375.06 K, 20148 kPa	481.92 kg/m3
375.06 K, 22667 kPa	541.64 kg/m3
375.06 K, 22672 kPa	541.46 kg/m3
375.06 K, 25185 kPa	590.31 kg/m3
375.06 K, 25191 kPa	590.18 kg/m3
375.06 K, 27702 kPa	630.33 kg/m3
375.06 K, 27708 kPa	630.2 kg/m3
375.06 K, 30214 kPa	663.73 kg/m3
375.06 K, 30222 kPa	663.67 kg/m3
375.06 K, 32714 kPa	692.09 kg/m3
375.06 K, 32726 kPa	692.34 kg/m3
375.06 K, 35206 kPa	716.75 kg/m3
375.06 K, 35223 kPa	717.02 kg/m3
399.99 K, 2560.5 kPa	35.13 kg/m3
399.99 K, 2564.5 kPa	35.68 kg/m3
399.99 K, 5074.4 kPa	74.46 kg/m3
399.99 K, 5079.5 kPa	74.06 kg/m3
399.99 K, 7580.3 kPa	116.91 kg/m3
399.99 K, 7584.9 kPa	117.53 kg/m3
399.99 K, 10090 kPa	164.56 kg/m3
399.99 K, 10112 kPa	164.41 kg/m3
399.99 K, 12594 kPa	215.96 kg/m3
399.99 K, 12608 kPa	216.99 kg/m3
399.99 K, 15081 kPa	271.09 kg/m3
399.99 K, 15090 kPa	272.1 kg/m3
399.99 K, 17615 kPa	329.58 kg/m3
399.99 K, 17617 kPa	330.16 kg/m3
399.99 K, 20141 kPa	387.34 kg/m3 and 386.76 kg/m3
399.99 K, 22663 kPa	440.42 kg/m3
399.99 K, 22665 kPa	441.02 kg/m3
399.99 K, 25183 kPa	488.79 kg/m3
399.99 K, 25184 kPa	489.39 kg/m3
399.99 K, 27700 kPa	532.13 kg/m3
399.99 K, 27701 kPa	531.53 kg/m3
399.99 K, 30211 kPa	569.48 kg/m3
399.99 K, 30212 kPa	568.87 kg/m3
399.99 K, 32703 kPa	601.95 kg/m3
399.99 K, 32723 kPa	601.61 kg/m3
399.99 K, 35199 kPa	630.66 kg/m3
399.99 K, 35210 kPa	630.23 kg/m3

S=C=S [carbon disulfide] + O=C=O
m1 = 0.2322
Details	mass density
324.09 K, 5020 kPa	107.03 kg/m3
324.09 K, 5037.7 kPa	107.14 kg/m3
324.09 K, 7541 kPa	199.79 kg/m3
324.09 K, 7551.5 kPa	199.54 kg/m3
324.09 K, 10053 kPa	403.53 kg/m3
324.09 K, 10060 kPa	402.21 kg/m3
324.09 K, 12570 kPa	624.02 kg/m3
324.09 K, 12604 kPa	625.07 kg/m3
324.09 K, 15125 kPa	707.48 kg/m3
324.09 K, 15142 kPa	707.56 kg/m3
324.09 K, 17653 kPa	755.16 kg/m3
324.09 K, 17669 kPa	755.21 kg/m3
324.09 K, 20182 kPa	789.28 kg/m3
324.09 K, 20197 kPa	789.34 kg/m3
324.09 K, 22699 kPa	815.92 kg/m3
324.09 K, 22712 kPa	815.94 kg/m3
324.09 K, 25212 kPa	837.95 kg/m3
324.09 K, 25226 kPa	837.97 kg/m3
324.09 K, 27728 kPa	856.85 kg/m3
324.09 K, 27741 kPa	856.86 kg/m3
324.09 K, 30237 kPa	873.42 kg/m3
324.09 K, 30252 kPa	873.43 kg/m3
324.09 K, 32734 kPa	888.17 kg/m3
324.09 K, 32750 kPa	888.17 kg/m3
324.09 K, 35219 kPa	901.47 kg/m3
324.09 K, 35227 kPa	901.44 kg/m3
349.43 K, 5049.6 kPa	92.26 kg/m3
349.43 K, 5059.9 kPa	92.17 kg/m3
349.43 K, 7561.3 kPa	154.46 kg/m3
349.43 K, 7565.2 kPa	155.4 kg/m3
349.43 K, 10072 kPa	237.91 kg/m3
349.43 K, 10079 kPa	236.77 kg/m3
349.43 K, 12659 kPa	351.82 kg/m3
349.43 K, 12682 kPa	350.77 kg/m3
349.43 K, 15194 kPa	474.54 kg/m3
349.43 K, 15210 kPa	471.73 kg/m3
349.43 K, 17724 kPa	568.76 kg/m3
349.43 K, 17738 kPa	565.77 kg/m3
349.43 K, 20245 kPa	633.49 kg/m3
349.43 K, 20260 kPa	630.9 kg/m3
349.43 K, 22769 kPa	680.4 kg/m3
349.43 K, 22783 kPa	678.14 kg/m3
349.43 K, 25280 kPa	716.41 kg/m3
349.43 K, 25300 kPa	714.54 kg/m3
349.43 K, 27790 kPa	745.77 kg/m3
349.43 K, 27805 kPa	744.03 kg/m3
349.43 K, 30301 kPa	770.42 kg/m3
349.43 K, 30313 kPa	768.82 kg/m3
349.43 K, 32807 kPa	791.68 kg/m3
349.43 K, 32815 kPa	790.19 kg/m3
349.43 K, 35294 kPa	808.86 kg/m3
349.43 K, 35296 kPa	810.28 kg/m3
374.78 K, 5066.1 kPa	82.47 kg/m3
374.78 K, 5070.7 kPa	82.42 kg/m3
374.78 K, 7581.5 kPa	133.35 kg/m3
374.78 K, 7585 kPa	133.32 kg/m3
374.78 K, 10086 kPa	191.97 kg/m3
374.78 K, 10088 kPa	191.92 kg/m3
374.78 K, 15040 kPa	335.44 kg/m3
374.78 K, 15062 kPa	335.78 kg/m3
374.78 K, 17568 kPa	413.55 kg/m3
374.78 K, 17587 kPa	413.86 kg/m3
374.78 K, 20094 kPa	484.4 kg/m3
374.78 K, 20111 kPa	484.48 kg/m3
374.78 K, 22615 kPa	543.66 kg/m3
374.78 K, 22634 kPa	543.72 kg/m3
374.78 K, 25138 kPa	592.09 kg/m3
374.78 K, 25153 kPa	592 kg/m3
374.78 K, 27657 kPa	631.81 kg/m3
374.78 K, 27672 kPa	631.68 kg/m3
374.78 K, 30176 kPa	665.02 kg/m3
374.78 K, 30185 kPa	664.78 kg/m3
374.78 K, 32689 kPa	693.03 kg/m3
374.78 K, 32690 kPa	693.42 kg/m3
374.78 K, 35184 kPa	717.46 kg/m3
374.78 K, 35192 kPa	717.92 kg/m3
400.5 K, 5077 kPa	75.32 kg/m3
400.5 K, 5080.3 kPa	74.8 kg/m3
400.5 K, 7594.6 kPa	118.07 kg/m3 and 118.35 kg/m3
400.5 K, 10099 kPa	166.1 kg/m3
400.5 K, 10100 kPa	165.54 kg/m3
400.5 K, 15048 kPa	272.65 kg/m3
400.5 K, 15074 kPa	273.42 kg/m3
400.5 K, 17570 kPa	330.78 kg/m3
400.5 K, 17602 kPa	331.7 kg/m3
400.5 K, 20096 kPa	388.17 kg/m3
400.5 K, 20129 kPa	389.15 kg/m3
400.5 K, 22617 kPa	441.87 kg/m3
400.5 K, 22654 kPa	442.82 kg/m3
400.5 K, 25139 kPa	490.19 kg/m3
400.5 K, 25176 kPa	491.09 kg/m3
400.5 K, 27660 kPa	532.79 kg/m3
400.5 K, 27688 kPa	533.55 kg/m3
400.5 K, 30177 kPa	569.95 kg/m3
400.5 K, 30206 kPa	570.64 kg/m3
400.5 K, 32686 kPa	602.4 kg/m3
400.5 K, 32712 kPa	602.99 kg/m3
400.5 K, 35192 kPa	631.01 kg/m3
400.5 K, 35205 kPa	631.44 kg/m3
